Reference: patent US7395112B2, “Method and apparatus for treating tumors using low strength electric fields” (priority 2002, dated 2008)

How the values were obtained:
B16-F10.9 melanoma = assay: LEFCT-EC in mice bearing subcutaneous B16-F10.9 melanoma; assay type: in vivo, C57BL/6 mice; conditions: for Tumor size (mean ± standard error): 7 days after treatment
Description: Animals: C57BL/6 male mice were obtained from the breeding colony of Tel-Aviv University, Israel. Mice were used at 8-12 weeks of age. Animal care and experimentation was carried out in accordance with Tel-Aviv University guidelines.
Melanoma tumor cell line: The highly metastatic, poorly immunogenic B16-F10.9 (F10.9) subclone of the B16 melanoma cell line was used to generate melanoma tumors in mice (Eisenbach L. et al., 1984. Int J Cancer 34:567). Cells were maintained in DMEM supplemented with 100 U/ml penicillin, 100 μg/ml streptomycin, 4 mM glutamine, 1 mM sodium pyruvate, 1% non-essential amino acids and 10% heat-inactivated fetal calf serum (FCS); and were cultured at 37° C. in a humidified incubator in an atmosphere of 7% carbon dioxide and 93% air.
Tumor generation protocol: F10.9 tumors were induced in C57BL/6 mice by subcutaneous injection of 2×10^5 F10.9 cells. Mice were subjected to experimental treatments once tumors reached 5 mm in diameter (about 60-70 mm^3). Chemotherapeutic drugs: The following chemotherapeutic drugs used were: cis-platinum (II) diamminedichloride (cisplatin; #P-4394, Sigma, Israel), dissolved in PBS for injections; Taxol (Mead Johnson Oncology Products, A Bristol-Myers Squibb, USA), obtained as a sterile nonpyrogenic solution containing 6 mg/ml paclitaxel, 527 mg/ml of purified Cremophor EL (polyoxyethylated castor oil) and 5-FU (Abic, Israel).
Low-strength electric field enhanced cancer therapy protocol: Mice were subjected to a single treatment of LEFCT-EC, once tumors reached 5 mm in diameter (11-17 days following tumor cell inoculation). Volumes of up to 100 μl of chemotherapeutic agents were injected into tumor loci, and exposures to electric fields were carried out 3-4 min following intratumoral injection of chemotherapeutic agents. To expose tumors to electric fields, stainless steel electrode needles (Karlsbader insect pins No 0. BioQuip Products, USA) soldered at their brassy ends with thin isolated copper wires were used. Electrodes were inserted to a depth of about 7 mm percutaneously into and in the immediate vicinity of the tumor; one cathode needle in the center of the tumor and three peripheral anodes, at a distance of about 5 mm from the cathode. The needles were connected to an electric pulse generator (Grass S48 Stimulator, USA). The field strength applied was about 40 V/cm; the repetition frequency, 500 Hz; and the pulse width, 180 μs. All mice were anesthetized prior to LEF treatment.
Statistical analysis: Statistical analysis of survival times (Kaplan-Meir test), survival comparisons between groups (Mantel-Cox test) and tumor volume differences between groups (Kolmogorov-Smirnov test) were performed using StatSoft Statistica statistical software. The 10-15% mortality rate in the 5 days following LEF or LEF-chemotherapy was considered as treatment-caused, therefore such cases of mortality were excluded.
Tumor volume determination: performed as described above in Example 1 of the Examples section.

[1] = tested on: DA3 mammary adenocarcinoma; assay: LEFCT-EC in mice bearing DA3 mammary adenocarcinoma; assay type: in vivo, BALB/c mice
Description: Animals: BALB/c female mice between the ages of 8 to 12 weeks obtained from the breeding colony of Tel-Aviv University, Israel were used in vivo tumor therapy experiments. Animal care and experimentation was carried out in accordance with Tel-Aviv University guidelines.
Tumor cell line: The highly metastatic, poorly immunogenic mammary adenocarcinoma cell line DA3 (Lopez D M. et al., 1981. J Natl Cancer Inst. 66:191) was used to generate mammary carcinoma tumors in mice. Cells were grown in DMEM supplemented with 100 U/ml penicillin, 100 μg/ml streptomycin, 4 mM glutamine, 1 mM sodium pyruvate, 1% non-essential amino acids and 10% heat-inactivated fetal calf serum (FCS), and cultured at 37° C. in a humidified incubator in an atmosphere of 7% carbon dioxide and 93% air. Tumors of this cell line grown to 1 cm in diameter produce metastatic cells, mainly in the lungs.
Reagents: Taxol (Mead Johnson Oncology Products, A Bristol-Myers Squibb, USA), obtained as a sterile nonpyrogenic solution containing 6 mg/ml paclitaxel, 527 mg/ml of purified Cremophor EL (polyoxyethylated castor oil) and 49.7% (v/v) dehydrated ethanol; and bleomycin (MegaPharm, Israel) were the anti cancer drugs used.
Low-strength electric field enhanced cancer chemotherapy protocol: Mice were subjected to a single treatment of LEF-chemotherapy, once primary tumors reached 5 mm in diameter (about 60-70 mm^3) (11-17 days following subcutaneous tumor cell inoculation). Up to 100 μl of chemotherapeutic agents was injected into the tumor loci. The exposure to electric field was carried out as described above in Example 2 of the Examples section.
Effect of LEFCT-EC using bleomycin or taxol on the survival of DA3 mammary adenocarcinoma bearing nice: BALB/c mice bearing DA3 mammary adenocarcinoma were treated by LEF-chemotherapy with intratumoral taxol (20 mg/kg) (FIG. 19) or bleomycin (30 U/kg) (FIG. 20) administration and their survival rate was compared with that of mice treated only with LEF or chemotherapy.

Substance: bleomycin
- Tumor size (mean ± standard error) (B16-F10.9 melanoma; LEF-CT (drug + LEF), cisplatin 4 mg/kg, bleomycin 8 U/kg, 5-FU 150 mg/kg, taxol 20 mg/kg): 573 ± 138 mm^3
- mean survival time (MST) (B16-F10.9 melanoma; LEF-chemotherapy: intratumoral drug + LEF about 40 V/cm 12 min, 120 days (cisplatin) or 180 days (taxol, bleomycin) after inoculation): 48 days
- cure rate / animals alive and free of visible tumor (B16-F10.9 melanoma; LEF-chemotherapy, 180 days after tumor inoculation): 8.2%
- mean survival time (MST) (B16-F10.9 melanoma; chemotherapy alone, intratumoral, no LEF): 34.3 days
- Tumor size (mean ± standard error) (B16-F10.9 melanoma; intratumoral drug injection alone, same doses): 2456 ± 220 mm^3
- LEFCT-EC treated mice that died two months and later after treatment with pulmonary metastatic foci, free of primary tumor (B16-F10.9 melanoma; pooled statement for cisplatin, taxol or bleomycin): About 10%
- MST (B16-F10.9 melanoma; route comparison: bleomycin 8 U/kg intraperitoneally + LEF): 34.6 days
- MST (B16-F10.9 melanoma; route comparison: bleomycin 8 U/kg intratumorally + LEF): 46.6 days
- animals alive (B16-F10.9 melanoma; route comparison: bleomycin 8 U/kg intratumorally + LEF, 180 days after tumor inoculation): 5%
- survival time, Mean ([1]; LEF-chemotherapy with the drug): 85.3
- survival time, Median ([1]; LEF-chemotherapy with the drug): 64.5
- cure rate ([1]; LEF-chemotherapy, intratumoral taxol 20 mg/kg or bleomycin 30 U/kg, 180 days after tumor inoculation): 30%
- survival time, Mean ([1]; drug alone, intratumoral): 40.2
- survival time, Median ([1]; drug alone, intratumoral): 37.5
